Legend:
[1] = Perfume stabilization effect (sequestering agent combination); parameters: key to Sunlight exposure (80 MJ) Smell evaluation: A: No change; B: No almost change; C: Yes change; details: for smell change: with a sequestering agent, compared with compositions without; for Sunlight exposure (80 MJ) Smell evaluation: amounts wt %
Method: Next, for combinations with sequestering agent, photostabilization effect for each perfume was studied by the following evaluation formulation.
Each test sample was prepared. Smell change of samples exposed to sunlight (80 MJ) was observed (judgement by perfumier).

[2] = Stability test in case of including UV shielding agent of inorganic powder (sun-screen cream); format: physicochemical; details: sun-screen cream with inorganic powder, 10.0 wt % ultraviolet absorbent; 2 months at 50° C.; visual observation
Method: The sun screen cream of the following formulation was manufactured. These were preserved for 2 months at 50° C. By visual observation of discoloration, the inventors have checked stability when using an UV shielding agent of inorganic powder which is included as external skin preparation for the ultraviolet rays defense.
After (2) was added to (1) and was swelled sufficiently, (3) to (11) was added thereto and was mixed with heating. The mixture was sufficiently dissolved with dispersing. This dispersed liquid was kept at 70° C. After this dispersed liquid was emulsified homogeneously by homomixer with adding a mixture of (12) to (15) gradually, which was cooled to 30° C. with stirring well to obtain sun screen.

skin (face) = assay: Skin irritation test: continuous use test; format: in vivo, human; details: 10 wt % ultraviolet absorbent, twice a day for 4 weeks
Method: Sample (10 wt % of ultraviolet absorbent) is the same as test example 2. The continuous use test by the healthy subjects was carried out with one group of twenty subjects. A proper amount of each sample was applied to the face twice a day for 4 weeks. The evaluation standard of Table 5 was judged. [table] The calculated average score was evaluated by the next standard. A: Average score is 0. B: Average score is over 0 and less than 1. C: Average score is 1 or more, and less than 2. D: Average score is 2 or more.

## Oc1nncc(N2CCOCC2)c1N1CCOCC1 [4,5-Dimorpholino-3-hydroxypyridazine]
[1]; base perfume, Table 29
  smell change: very small
[1]; natural perfume Bergamot oil 0.03, photostabilizer 0.05 + Trisodium ethylenediamine tetraacetate 0.03
  Sunlight exposure (80 MJ) Smell evaluation: A
[1]; natural perfume Bergamot oil 0.03, photostabilizer 0.05, no sequestering agent
  Sunlight exposure (80 MJ) Smell evaluation: B
[1]; natural perfume Jasmine oil 0.03, photostabilizer 0.02 + Sodium metaphosphate 0.03
  Sunlight exposure (80 MJ) Smell evaluation: A
[1]; natural perfume Jasmine oil 0.03, photostabilizer 0.02, no sequestering agent
  Sunlight exposure (80 MJ) Smell evaluation: B
[1]; natural perfume Lavender oil 0.03, photostabilizer 0.02 + Trisodium hydroxyethyl ethylenediamine triacetate 0.03
  Sunlight exposure (80 MJ) Smell evaluation: A
[1]; natural perfume Lavender oil 0.03, photostabilizer 0.02, no sequestering agent
  Sunlight exposure (80 MJ) Smell evaluation: B
[1]; natural perfume Musk oil 0.03, photostabilizer 0.1 + Sodium metaphosphate 0.03
  Sunlight exposure (80 MJ) Smell evaluation: A
[1]; natural perfume Musk oil 0.03, photostabilizer 0.1, no sequestering agent
  Sunlight exposure (80 MJ) Smell evaluation: B
[1]; natural perfume Orange oil 0.03, photostabilizer 0.05 + Sodium metaphosphate 0.03
  Sunlight exposure (80 MJ) Smell evaluation: A
[1]; natural perfume Orange oil 0.03, photostabilizer 0.05, no sequestering agent
  Sunlight exposure (80 MJ) Smell evaluation: B
[1]; natural perfume Peppermint oil 0.03, photostabilizer 0.01 + Trisodium ethylenediamine triacetate 0.03
  Sunlight exposure (80 MJ) Smell evaluation: A
[1]; natural perfume Peppermint oil 0.03, photostabilizer 0.01, no sequestering agent
  Sunlight exposure (80 MJ) Smell evaluation: B
[1]; natural perfume Rose oil 0.03, photostabilizer 0.02 + Trisodium ethylenediamine tetraacetate 0.03
  Sunlight exposure (80 MJ) Smell evaluation: A
[1]; natural perfume Rose oil 0.03, photostabilizer 0.02, no sequestering agent
  Sunlight exposure (80 MJ) Smell evaluation: B
[1]; natural perfume Ylang ylang oil 0.03, photostabilizer 0.02 + Trisodium hydroxyethyl ethylenediamine triacetate 0.03
  Sunlight exposure (80 MJ) Smell evaluation: A
[1]; natural perfume Ylang ylang oil 0.03, photostabilizer 0.02, no sequestering agent
  Sunlight exposure (80 MJ) Smell evaluation: B
[1]; natural perfume, Table 27
  smell change: very small
[1]; perfume Aldehyde 0.03, photostabilizer 0.05 + Trisodium hydroxyethyl ethylenediamine triacetate 0.03
  Sunlight exposure (80 MJ) Smell evaluation: A
[1]; perfume Aldehyde 0.03, photostabilizer 0.05, no sequestering agent
  Sunlight exposure (80 MJ) Smell evaluation: B
[1]; perfume Animal 0.03, photostabilizer 0.1 + Trisodium ethylenediamine tetraacetate 0.03
  Sunlight exposure (80 MJ) Smell evaluation: A
[1]; perfume Animal 0.03, photostabilizer 0.1, no sequestering agent
  Sunlight exposure (80 MJ) Smell evaluation: B
[1]; perfume Fruity 0.03, photostabilizer 0.03 + Sodium metaphosphate 0.03
  Sunlight exposure (80 MJ) Smell evaluation: A
[1]; perfume Fruity 0.03, photostabilizer 0.03, no sequestering agent
  Sunlight exposure (80 MJ) Smell evaluation: B
[1]; perfume Green 0.03, photostabilizer 0.01 + Trisodium hydroxyethyl ethylenediamine triacetate 0.03
  Sunlight exposure (80 MJ) Smell evaluation: A
[1]; perfume Green 0.03, photostabilizer 0.01, no sequestering agent
  Sunlight exposure (80 MJ) Smell evaluation: B
[1]; perfume Jasmine 0.03, photostabilizer 0.02 + Trisodium ethylenediamine tetraacetate 0.03
  Sunlight exposure (80 MJ) Smell evaluation: A
[1]; perfume Jasmine 0.03, photostabilizer 0.02, no sequestering agent
  Sunlight exposure (80 MJ) Smell evaluation: B
[1]; perfume Muguet 0.03, photostabilizer 0.02 + Sodium metaphosphate 0.03
  Sunlight exposure (80 MJ) Smell evaluation: A
[1]; perfume Muguet 0.03, photostabilizer 0.02, no sequestering agent
  Sunlight exposure (80 MJ) Smell evaluation: B
[1]; perfume Oriental 0.03, photostabilizer 0.01 + Trisodium ethylenediamine tetraacetate 0.03
  Sunlight exposure (80 MJ) Smell evaluation: A
[1]; perfume Oriental 0.03, photostabilizer 0.01, no sequestering agent
  Sunlight exposure (80 MJ) Smell evaluation: B
[1]; perfume Rose 0.03, photostabilizer 0.02 + Trisodium hydroxyethyl ethylenediamine triacetate 0.03
  Sunlight exposure (80 MJ) Smell evaluation: A
[1]; perfume Rose 0.03, photostabilizer 0.02, no sequestering agent
  Sunlight exposure (80 MJ) Smell evaluation: B
[1]; synthetic perfume Benzyl benzoate 0.03, photostabilizer 0.02 + Trisodium hydroxyethyl ethylenediamine triacetate 0.03
  Sunlight exposure (80 MJ) Smell evaluation: A
[1]; synthetic perfume Benzyl benzoate 0.03, photostabilizer 0.02, no sequestering agent
  Sunlight exposure (80 MJ) Smell evaluation: B
[1]; synthetic perfume Citral 0.03, photostabilizer 0.01 + Trisodium hydroxyethyl ethylenediamine triacetate 0.03
  Sunlight exposure (80 MJ) Smell evaluation: A
[1]; synthetic perfume Citral 0.03, photostabilizer 0.01, no sequestering agent
  Sunlight exposure (80 MJ) Smell evaluation: B
[1]; synthetic perfume Lilial 0.03, photostabilizer 0.1 + Sodium metaphosphate 0.03
  Sunlight exposure (80 MJ) Smell evaluation: A
[1]; synthetic perfume Lilial 0.03, photostabilizer 0.1, no sequestering agent
  Sunlight exposure (80 MJ) Smell evaluation: B
[1]; synthetic perfume Limonene 0.03, photostabilizer 0.02 + Trisodium hydroxyethyl ethylenediamine triacetate 0.03
  Sunlight exposure (80 MJ) Smell evaluation: A
[1]; synthetic perfume Limonene 0.03, photostabilizer 0.02, no sequestering agent
  Sunlight exposure (80 MJ) Smell evaluation: B
[1]; synthetic perfume Oranthiol 0.03, photostabilizer 0.05 + Sodium metaphosphate 0.03
  Sunlight exposure (80 MJ) Smell evaluation: A
[1]; synthetic perfume Oranthiol 0.03, photostabilizer 0.05, no sequestering agent
  Sunlight exposure (80 MJ) Smell evaluation: B
[1]; synthetic perfume Rose oxide 0.03, photostabilizer 0.05 + Trisodium ethylenediamine tetraacetate 0.03
  Sunlight exposure (80 MJ) Smell evaluation: A
[1]; synthetic perfume Rose oxide 0.03, photostabilizer 0.05, no sequestering agent
  Sunlight exposure (80 MJ) Smell evaluation: B
[1]; synthetic perfume cis-3-Hexenol 0.03, photostabilizer 0.02 + Trisodium ethylenediamine tetraacetate 0.03
  Sunlight exposure (80 MJ) Smell evaluation: A
[1]; synthetic perfume cis-3-Hexenol 0.03, photostabilizer 0.02, no sequestering agent
  Sunlight exposure (80 MJ) Smell evaluation: B
[1]; synthetic perfume β-ionone 0.03, photostabilizer 0.01 + Trisodium ethylenediamine tetraacetate 0.03
  Sunlight exposure (80 MJ) Smell evaluation: A
[1]; synthetic perfume β-ionone 0.03, photostabilizer 0.01, no sequestering agent
  Sunlight exposure (80 MJ) Smell evaluation: B
[1]; synthetic perfume, Table 28
  smell change: very small
[2]
  Discoloration: No
Skin (face); Cream
  Judgment (continuous use test, average skin reaction score): A (Average score is 0.)
Skin (face); Lotion
  Judgment (continuous use test, average skin reaction score): A (Average score is 0.)
other
  melting point: 256 to 257 °C (dec.)

From patent US6395896B2, “Pyridazine derivatives, manufacturing method and related composition” (Shiseido Co., Ltd., priority 1999, dated 2002)
